# Laboratory results taken from ChEMBL document CHEMBL4052689, “Discovery and optimization of 3-(4-aryl/heteroarylsulfonyl)piperazin-1-yl)-6-(piperidin-1-yl)pyridazines as novel, CNS penetrant pan-muscarinic antagonists” (Bioorg Med Chem Lett, 2017).
# Tested on: Plasma
# Assay: Protein binding in rat plasma
# Type: ADME, cell-free
# Conditions: not given; call rule not given here
row,SMILES,PPB
1,C[C@H]1CCCCN1c1ccc(N2CCN(S(=O)(=O)c3ccc(Cl)cc3)CC2)nn1,Active
2,C[C@H]1CCCCN1c1ccc(N2CCN(S(=O)(=O)c3ccc4c(c3)OCO4)CC2)nn1,Active
3,C[C@H]1CCCCN1c1ccc(N2CCN(S(=O)(=O)c3ccc4ncccc4c3)CC2)nn1,Active
4,C[C@H]1CCCCN1c1ccc(N2CCN(S(=O)(=O)c3cccc(Cl)c3)CC2)nn1,Active
5,C[C@H]1CCCCN1c1ccc(N2CCN(S(=O)(=O)c3nccn3C)CC2)nn1,Active
6,C[C@H]1CCCCN1c1ccc(N2CCN(S(=O)(=O)c3ccccc3)CC2)nn1,Active
7,C[C@H]1CCCCN1c1ccc(N2CCN(S(=O)(=O)c3ccccc3C(F)(F)F)CC2)nn1,Active
8,COc1ccc(S(=O)(=O)N2CCN(c3ccc(N4CCCC[C@@H]4C)nn3)CC2)cc1OC,Active
9,C[C@H]1CCCCN1c1ccc(N2CCN(S(=O)(=O)C3CCCCC3)CC2)nn1,Active
10,COc1ccccc1S(=O)(=O)N1CCN(c2ccc(N3CCCC[C@@H]3C)nn2)CC1,Active
11,Cc1noc(C)c1S(=O)(=O)N1CCN(c2ccc(N3CCCC[C@@H]3C)nn2)CC1,Active

# Molecular target: T1, Muscarinic acetylcholine receptor M4 (Homo sapiens) (UniProt P08173)
# T1 sequence (whole entry): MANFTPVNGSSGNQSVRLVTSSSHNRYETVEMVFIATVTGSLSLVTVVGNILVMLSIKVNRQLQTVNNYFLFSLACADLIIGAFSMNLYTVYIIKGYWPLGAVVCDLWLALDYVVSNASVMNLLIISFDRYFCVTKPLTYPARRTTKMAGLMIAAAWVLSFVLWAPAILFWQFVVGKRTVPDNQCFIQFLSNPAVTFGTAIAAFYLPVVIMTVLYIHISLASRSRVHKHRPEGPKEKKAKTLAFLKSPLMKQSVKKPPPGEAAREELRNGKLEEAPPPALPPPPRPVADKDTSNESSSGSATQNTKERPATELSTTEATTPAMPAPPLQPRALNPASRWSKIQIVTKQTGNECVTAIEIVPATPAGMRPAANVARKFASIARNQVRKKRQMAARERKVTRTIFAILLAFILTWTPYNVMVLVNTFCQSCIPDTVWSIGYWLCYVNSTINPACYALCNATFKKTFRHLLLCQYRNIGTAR
# Assay: Antagonist activity at human recombinant muscarinic M4 receptor expressed in CHO cells co-transfected with Gqi5 assessed as acetylcholine-induced response in presence of EC80 acetylcholine by calcium mobilization assay relative to untreated control
# Type: functional, cell-based
# Parameters: scale not given: the % may be the effect or the level left
# Conditions: not given
row,SMILES,Activity [%]
1,CC1(C)CCCN(c2ccc(N3CCN(S(=O)(=O)c4ccccc4Cl)CC3)nn2)C1,5
2,C[C@H]1CCCCN1c1ccc(N2CCN(S(=O)(=O)c3ccc(Cl)cc3)CC2)nn1,30
3,C[C@H]1CCCCN1c1ccc(N2CCN(S(=O)(=O)c3ccc4c(c3)OCO4)CC2)nn1,9
4,O=S(=O)(c1ccc2c(c1)OCO2)N1CCN(c2ccc(N3CCCCCC3)nn2)CC1,20
5,C[C@H]1CCCCN1c1ccc(N2CCN(S(=O)(=O)c3ccc4ncccc4c3)CC2)nn1,7
6,C[C@H]1CCCCN1c1ccc(N2CCN(S(=O)(=O)c3cccc(Cl)c3)CC2)nn1,22
7,C[C@H]1CCCCN1c1ccc(N2CCN(S(=O)(=O)c3nccn3C)CC2)nn1,8
8,C[C@H]1CCCCN1c1ccc(N2CCN(S(=O)(=O)c3ccccc3)CC2)nn1,8
9,C[C@H]1CCCCN1c1ccc(N2CCN(S(=O)(=O)c3ccccc3C(F)(F)F)CC2)nn1,4
10,O=S(=O)(c1ccccc1Cl)N1CCN(c2ccc(N3CCCCCC3)nn2)CC1,6
11,COc1ccc(S(=O)(=O)N2CCN(c3ccc(N4CCCC[C@@H]4C)nn3)CC2)cc1OC,46
12,C[C@H]1CCCCN1c1ccc(N2CCN(S(=O)(=O)C3CCCCC3)CC2)nn1,51
13,COc1ccccc1S(=O)(=O)N1CCN(c2ccc(N3CCCC[C@@H]3C)nn2)CC1,11
14,C[C@@H]1CCCCN1c1ccc(N2CCN(S(=O)(=O)c3ccccc3Cl)CC2)nn1,12
15,C[C@H]1CCCN1c1ccc(N2CCN(S(=O)(=O)c3ccccc3Cl)CC2)nn1,9
16,CC1(C)CCCN(c2ccc(N3CCN(S(=O)(=O)c4ccc5c(c4)OCO5)CC3)nn2)C1,14
17,O=S(=O)(c1ccc2c(c1)OCO2)N1CCN(c2ccc(N3CCCCC3)nn2)CC1,55
18,Cc1noc(C)c1S(=O)(=O)N1CCN(c2ccc(N3CCC[C@@H]3C)nn2)CC1,10
19,O=C1CCCCN1c1ccc(N2CCN(S(=O)(=O)c3ccccc3Cl)CC2)nn1,51
20,C[C@H]1COCCN1c1ccc(N2CCN(S(=O)(=O)c3ccc4c(c3)OCO4)CC2)nn1,63
21,Cc1noc(C)c1S(=O)(=O)N1CCN(c2ccc(N3CCCCCC3)nn2)CC1,8
22,C[C@H]1COCCN1c1ccc(N2CCN(S(=O)(=O)c3ccccc3Cl)CC2)nn1,56
23,Cc1noc(C)c1S(=O)(=O)N1CCN(c2ccc(N3CCCC[C@@H]3C)nn2)CC1,6
24,C[C@H]1CCCN1c1ccc(N2CCN(S(=O)(=O)c3ccc4c(c3)OCO4)CC2)nn1,14
25,Cc1noc(C)c1S(=O)(=O)N1CCN(c2ccc(N3CCOC[C@@H]3C)nn2)CC1,66
26,O=S(=O)(c1ccccc1Cl)N1CCN(c2ccc(N3CCCCC3)nn2)CC1,12
27,CC1CCCCN1c1ccc(N2CCN(S(=O)(=O)c3ccccc3Cl)CC2)nn1 (racemic),9.2

# Tested on: Plasma
# Assay: Protein binding in human plasma
# Type: ADME, cell-free
# Conditions: not given
row,SMILES,PPB
1,C[C@H]1CCCCN1c1ccc(N2CCN(S(=O)(=O)c3ccc(Cl)cc3)CC2)nn1,Active
2,C[C@H]1CCCCN1c1ccc(N2CCN(S(=O)(=O)c3ccc4c(c3)OCO4)CC2)nn1,Active
3,C[C@H]1CCCCN1c1ccc(N2CCN(S(=O)(=O)c3ccc4ncccc4c3)CC2)nn1,Active
4,C[C@H]1CCCCN1c1ccc(N2CCN(S(=O)(=O)c3cccc(Cl)c3)CC2)nn1,Active
5,C[C@H]1CCCCN1c1ccc(N2CCN(S(=O)(=O)c3nccn3C)CC2)nn1,Active
6,C[C@H]1CCCCN1c1ccc(N2CCN(S(=O)(=O)c3ccccc3)CC2)nn1,Active
7,C[C@H]1CCCCN1c1ccc(N2CCN(S(=O)(=O)c3ccccc3C(F)(F)F)CC2)nn1,Active
8,COc1ccc(S(=O)(=O)N2CCN(c3ccc(N4CCCC[C@@H]4C)nn3)CC2)cc1OC,Active
9,C[C@H]1CCCCN1c1ccc(N2CCN(S(=O)(=O)C3CCCCC3)CC2)nn1,Active
10,COc1ccccc1S(=O)(=O)N1CCN(c2ccc(N3CCCC[C@@H]3C)nn2)CC1,Active
11,Cc1noc(C)c1S(=O)(=O)N1CCN(c2ccc(N3CCCC[C@@H]3C)nn2)CC1,Active

# Molecular target: T2, Muscarinic acetylcholine receptor M4 (Homo sapiens, UniProt P08173)
# T2 sequence (P08173 whole entry): T1 sequence (whole entry)
# Assay: Antagonist activity at human recombinant muscarinic M4 receptor expressed in CHO cells co-transfected with Gqi5 in presence of EC80 acetylcholine by calcium mobilization assay
# Type: functional, cell-based
# Conditions: read-out: IC50
row,SMILES,IC50 [nM]
1,CC1(C)CCCN(c2ccc(N3CCN(S(=O)(=O)c4ccccc4Cl)CC3)nn2)C1,940
2,C[C@H]1CCCCN1c1ccc(N2CCN(S(=O)(=O)c3ccc(Cl)cc3)CC2)nn1,2340
3,C[C@H]1CCCCN1c1ccc(N2CCN(S(=O)(=O)c3ccc4c(c3)OCO4)CC2)nn1,200
4,O=S(=O)(c1ccc2c(c1)OCO2)N1CCN(c2ccc(N3CCCCCC3)nn2)CC1,290
5,C[C@H]1CCCCN1c1ccc(N2CCN(S(=O)(=O)c3ccc4ncccc4c3)CC2)nn1,1170
6,C[C@H]1CCCCN1c1ccc(N2CCN(S(=O)(=O)c3cccc(Cl)c3)CC2)nn1,760
7,C[C@H]1CCCCN1c1ccc(N2CCN(S(=O)(=O)c3nccn3C)CC2)nn1,1600
8,C[C@H]1CCCCN1c1ccc(N2CCN(S(=O)(=O)c3ccccc3)CC2)nn1,2570
9,C[C@H]1CCCCN1c1ccc(N2CCN(S(=O)(=O)c3ccccc3C(F)(F)F)CC2)nn1,520
10,O=S(=O)(c1ccccc1Cl)N1CCN(c2ccc(N3CCCCCC3)nn2)CC1,1270
11,C[C@H]1CCCCN1c1cnc(N2CCN(S(=O)(=O)c3ccc4c(c3)OCO4)CC2)cn1,> 10000
12,COc1ccc(S(=O)(=O)N2CCN(c3ccc(N4CCCC[C@@H]4C)nn3)CC2)cc1OC,2800
13,C[C@H]1CCCCN1c1ccc(N2CCN(S(=O)(=O)C3CCCCC3)CC2)nn1,4020
14,COc1ccccc1S(=O)(=O)N1CCN(c2ccc(N3CCCC[C@@H]3C)nn2)CC1,2380
15,C[C@@H]1CCCCN1c1ccc(N2CCN(S(=O)(=O)c3ccccc3Cl)CC2)nn1,6080
16,C[C@H]1CCCCN1c1ccc(N2CCN(S(=O)(=O)c3ccc4c(c3)OCO4)CC2)cc1,1330

row,SMILES,IC50 [nM]
1,C[C@H]1CCCN1c1ccc(N2CCN(S(=O)(=O)c3ccccc3Cl)CC2)nn1,2900
2,CC1(C)CCCN(c2ccc(N3CCN(S(=O)(=O)c4ccc5c(c4)OCO5)CC3)nn2)C1,470
3,O=S(=O)(c1ccc2c(c1)OCO2)N1CCN(c2ccc(N3CCCCC3)nn2)CC1,730
4,Cc1noc(C)c1S(=O)(=O)N1CCN(c2ccc(N3CCC[C@@H]3C)nn2)CC1,3310
5,O=C1CCCCN1c1ccc(N2CCN(S(=O)(=O)c3ccccc3Cl)CC2)nn1,> 10000
6,C[C@H]1COCCN1c1ccc(N2CCN(S(=O)(=O)c3ccc4c(c3)OCO4)CC2)nn1,> 10000
7,C[C@H]1CCCCN1c1ccc(N2CCN(S(=O)(=O)c3ccc4c(c3)OCO4)CC2)cn1,> 10000
8,Cc1noc(C)c1S(=O)(=O)N1CCN(c2ccc(N3CCCCCC3)nn2)CC1,430
9,C[C@H]1COCCN1c1ccc(N2CCN(S(=O)(=O)c3ccccc3Cl)CC2)nn1,> 10000
10,Cc1noc(C)c1S(=O)(=O)N1CCN(c2ccc(N3CCCC[C@@H]3C)nn2)CC1,90
11,C[C@H]1CCCN1c1ccc(N2CCN(S(=O)(=O)c3ccc4c(c3)OCO4)CC2)nn1,2730
12,Cc1noc(C)c1S(=O)(=O)N1CCN(c2ccc(N3CCOC[C@@H]3C)nn2)CC1,> 10000
13,O=S(=O)(c1ccccc1Cl)N1CCN(c2ccc(N3CCCCC3)nn2)CC1,5580
14,C[C@H]1CCCCN1c1ccc(N2CCN(S(=O)(=O)c3ccc4c(c3)OCO4)CC2)nc1,1350
15,CC1CCCCN1c1ccc(N2CCN(S(=O)(=O)c3ccccc3Cl)CC2)nn1 (racemic),530

# Same assay, conditions: read-out: pIC50 (converted)
row,SMILES,IC50 [nM]
1,C[C@H]1CCCCN1c1ccc(N2CCN(S(=O)(=O)c3ccc(Cl)cc3)CC2)nn1,2290
2,C[C@H]1CCCCN1c1ccc(N2CCN(S(=O)(=O)c3ccc4ncccc4c3)CC2)nn1,1120
3,C[C@H]1CCCCN1c1ccc(N2CCN(S(=O)(=O)c3cccc(Cl)c3)CC2)nn1,708
4,COc1ccc(S(=O)(=O)N2CCN(c3ccc(N4CCCC[C@@H]4C)nn3)CC2)cc1OC,2630
5,C[C@@H]1CCCCN1c1ccc(N2CCN(S(=O)(=O)c3ccccc3Cl)CC2)nn1,5750
6,CC1(C)CCCN(c2ccc(N3CCN(S(=O)(=O)c4ccc5c(c4)OCO5)CC3)nn2)C1,457
7,O=S(=O)(c1ccc2c(c1)OCO2)N1CCN(c2ccc(N3CCCCC3)nn2)CC1,661
8,Cc1noc(C)c1S(=O)(=O)N1CCN(c2ccc(N3CCCCCC3)nn2)CC1,407
9,C[C@H]1CCCN1c1ccc(N2CCN(S(=O)(=O)c3ccc4c(c3)OCO4)CC2)nn1,2570
10,O=S(=O)(c1ccccc1Cl)N1CCN(c2ccc(N3CCCCC3)nn2)CC1,5370

# Molecular target: T2, Muscarinic acetylcholine receptor M4
# Assay: Antagonist activity at human muscarinic M4 receptor
# Conditions: not given
row,SMILES,IC50 [nM]
1,CC1CCCCN1c1ccc(N2CCN(S(=O)(=O)c3ccccc3Cl)CC2)nn1 (racemic),1000
